Drawing on ChEMBL document CHEMBL1151012, “Synthesis and anti-pseudomonal activity of new 2-isocephems with a dihydroxypyridone moiety at C-7” (1994), this text covers MIC and ED50 for five compounds.

≈ marks a conversion by molar mass, not a printed value.

One test concerns Escherichia coli. Kind of test: In vitro antibacterial activity against Escherichia coli NIH JC-2 bacteria was determined. The class given is functional.
Test [1] has as its system Pseudomonas aeruginosa. The experiment in a line: In vitro antibacterial activity against Pseudomonas aeruginosa 59 was determined. The class given is functional.
Test [2] concerns Pseudomonas aeruginosa. Kind of test: In vitro antibacterial activity against CAZ resistant Pseudomonas aeruginosa 69 was determined. The class given is functional.
Test [3] deals with Pseudomonas aeruginosa. The experiment in a line: In vitro antibacterial activity against CAZ resistant Pseudomonas aeruginosa 59 was determined. The class given is functional.
In test [4] the test system is Pseudomonas aeruginosa. Kind of test: (§1) Protective effect on systemic infection in mice caused by clinically isolated Pseudomonas aeruginosa 58. The class given is functional.
For test [5], the species on record is Mus musculus. The description is as §1. The class given is functional.
The subject of test [6] is Pseudomonas aeruginosa. Kind of test: In vitro antibacterial activity against CAZ resistant Pseudomonas aeruginosa 47 was determined. The class given is functional.
For test [7], the system named is Pseudomonas aeruginosa. Kind of test: In vitro antibacterial activity against Pseudomonas aeruginosa 69 was determined. The class given is functional.
The species named for test [8] is Mus musculus. The experiment in a line: Protective effect on systemic infection in mice caused by clinically isolated Pseudomonas aeruginosa 67. The class given is functional.
Test [9] relates to Pseudomonas aeruginosa. Kind of test: In vitro antibacterial activity against AZT resistant Pseudomonas aeruginosa 56 was determined. The class given is functional.
For test [10], the system named is Pseudomonas aeruginosa. Kind of test: In vitro antibacterial activity against Pseudomonas aeruginosa NCTC-10490 bacteria was determined. The class given is functional.
The subject of test [11] is Pseudomonas aeruginosa. The experiment in a line: In vitro antibacterial activity against IPM resistant Pseudomonas aeruginosa 69 was determined. The class given is functional.
The test system of test [12] is Pseudomonas aeruginosa. Kind of test: In vitro antibacterial activity against AZT resistant Pseudomonas aeruginosa 59 was determined. The class given is functional.
For a further test, the system named is Klebsiella pneumoniae. Kind of test: In vitro antibacterial activity against Klebsiella pneumoniae NCTC-9632 bacteria was determined. The class given is functional.
The subject of test [13] is Pseudomonas aeruginosa. The experiment in a line: In vitro antibacterial activity against CAZ resistant Pseudomonas aeruginosa 56 was determined. The class given is functional.
Test [14] concerns Pseudomonas aeruginosa. Kind of test: In vitro antibacterial activity against AZT resistant Pseudomonas aeruginosa 69 was determined. The class given is functional.
The subject of test [15] is Pseudomonas aeruginosa. The experiment in a line: In vitro antibacterial activity against Pseudomonas aeruginosa 47 was determined. The class given is functional.
In test [16] the test system is Pseudomonas aeruginosa. The experiment in a line: In vitro antibacterial activity against Pseudomonas aeruginosa 56 was determined. The class given is functional.
The subject of test [17] is Pseudomonas aeruginosa. The experiment in a line: In vitro antibacterial activity against Pseudomonas aeruginosa ATCC 10145 bacteria was determined. The class given is functional.
For test [18], the system named is Pseudomonas aeruginosa. The experiment in a line: In vitro antibacterial activity against IPM resistant Pseudomonas aeruginosa 47 was determined. The class given is functional.
Test [19] concerns Pseudomonas aeruginosa. Kind of test: Antibacterial activity against clinically isolated Pseudomonas aeruginosa 67.
Test [20] relates to Pseudomonas aeruginosa. Kind of test: In vitro antibacterial activity against IPM resistant Pseudomonas aeruginosa 56 was determined. The class given is functional.
The subject of test [21] is Pseudomonas aeruginosa. The experiment in a line: In vitro antibacterial activity against AZT resistant Pseudomonas aeruginosa 47 was determined. The class given is functional.
In test [22] the test system is Pseudomonas aeruginosa. Kind of test: In vitro antibacterial activity against IPM resistant Pseudomonas aeruginosa 59 was determined. The class given is functional.

As usually defined, the MIC is the least concentration at which growth counts as inhibited. Read a high MIC as a less susceptible organism. A word on the ED50: it is the dose that gives a 50% effect, or the effect in half of the subjects. Read a high ED50 as weaker potency. For `Cc1nc(SCC2=C(C(=O)O)N3C(=O)[C@@H](NC(=O)/C(=N\OCc4cc(=O)c(O)cn4O)c4csc(N)n4)[C@H]3CS2)sc1CC(=O)O`, the minimal inhibitory concentration (MIC) in the test on Escherichia coli worked out at 0.1 µg/mL (≈ 0.141 µM); against Pseudomonas aeruginosa [1] it was 1.56 µg/mL (≈ 2.2 µM); against Pseudomonas aeruginosa [2] it was 50 µg/mL (≈ 70.4 µM); against Pseudomonas aeruginosa [3] it was 50 µg/mL (≈ 70.4 µM); against Pseudomonas aeruginosa [4], 0.05 µg/mL (≈ 0.0704 µM); against Pseudomonas aeruginosa [6], 50 µg/mL (≈ 70.4 µM). The minimum inhibitory concentration (MIC) against Pseudomonas aeruginosa [7] is 3.13 µg/mL (≈ 4.41 µM); against Pseudomonas aeruginosa [9], 50 µg/mL (≈ 70.4 µM); in the test on Pseudomonas aeruginosa [10], no more than 0.025 µg/mL; against Pseudomonas aeruginosa [11] it was 50 µg/mL (≈ 70.4 µM); in the test with Pseudomonas aeruginosa [12], 25 µg/mL (≈ 35.2 µM); in the test on Klebsiella pneumoniae, 0.05 µg/mL (≈ 0.0704 µM). Moreover, the minimal inhibitory concentration (MIC) with Pseudomonas aeruginosa [13] is 12.5 µg/mL (≈ 17.6 µM); against Pseudomonas aeruginosa [14], 25 µg/mL (≈ 35.2 µM); against Pseudomonas aeruginosa [15] it was 1.56 µg/mL (≈ 2.2 µM); in the test with Pseudomonas aeruginosa [16], 1.56 µg/mL (≈ 2.2 µM); in the test on Pseudomonas aeruginosa [17], 0.05 µg/mL (≈ 0.0704 µM); against Pseudomonas aeruginosa [18] it was 25 µg/mL (≈ 35.2 µM). Besides, the MIC against Pseudomonas aeruginosa [19] came to 0.1 µg/mL (≈ 0.141 µM); in the test with Pseudomonas aeruginosa [20] it was 25 µg/mL (≈ 35.2 µM); in the test with Pseudomonas aeruginosa [21], 25 µg/mL (≈ 35.2 µM); against Pseudomonas aeruginosa [22], 50 µg/mL (≈ 70.4 µM). Besides, the median effective dose (ED50) in the test filed under Mus musculus [5] was 3.2 mg/kg; in the test filed under Mus musculus [8] it was 21.8 mg/kg.

In the case of `Nc1nc(/C(=N/OCc2cc(=O)c(O)cn2O)C(=O)N[C@@H]2C(=O)N3C(C(=O)O)=C(CSc4nncs4)SC[C@H]23)cs1` (stereo in doubt), the MIC with Escherichia coli was 0.2 µg/mL (≈ 0.313 µM); with Pseudomonas aeruginosa [10], no more than 0.025 µg/mL; with Klebsiella pneumoniae, no more than 0.025 µg/mL; against Pseudomonas aeruginosa [17], 0.1 µg/mL (≈ 0.157 µM).

Regarding `Nc1nc(/C(=N/OCc2cc(=O)c(O)cn2O)C(=O)N[C@@H]2C(=O)N3C(C(=O)O)=C(CSc4nnnn4CC(=O)O)SC[C@H]23)cs1` (stereo in doubt), the minimal inhibitory concentration (MIC) was 0.05 µg/mL (≈ 0.0735 µM) with Escherichia coli, no more than 0.025 µg/mL in the test on Pseudomonas aeruginosa [10], no more than 0.025 µg/mL against Klebsiella pneumoniae and no more than 0.025 µg/mL against Pseudomonas aeruginosa [17].

As for `Nc1nc(/C(=N/OCc2cc(=O)c(O)cn2O)C(=O)N[C@@H]2C(=O)N3C(C(=O)O)=C(CSc4cnns4)SC[C@H]23)cs1` (stereo in doubt), the MIC is 0.2 µg/mL (≈ 0.313 µM) in the test with Escherichia coli, no more than 0.025 µg/mL in the test with Pseudomonas aeruginosa [10], 0.1 µg/mL (≈ 0.157 µM) with Klebsiella pneumoniae and 0.39 µg/mL (≈ 0.611 µM) against Pseudomonas aeruginosa [17].

For `CC(C)(O/N=C(\C(=O)N[C@@H]1C(=O)N2C(C(=O)[O-])=C(C[n+]3ccccc3)CS[C@H]12)c1csc(N)n1)C(=O)O` [CEFTAZIDIME], the MIC with Escherichia coli was 0.39 µg/mL (≈ 0.714 µM); in the test filed under Mus musculus [5], 3.13 µg/mL (≈ 5.73 µM); against Pseudomonas aeruginosa [10] it was 1.56 µg/mL (≈ 2.85 µM); against Klebsiella pneumoniae it was 0.05 µg/mL (≈ 0.0915 µM); with Pseudomonas aeruginosa [17], 1.56 µg/mL (≈ 2.85 µM); with Pseudomonas aeruginosa [19] it was 1.56 µg/mL (≈ 2.85 µM). For the same compound, the 50% effective dose (ED50) in the test filed under Mus musculus [5] is 31.7 mg/kg; in the test listed under Mus musculus [8] it was greater than 100 mg/kg.
